The text below walks through data of PubChem BioAssay (NCI).

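Five compound concentrations were applied to cells in 96-well plates for 48 hours; endpoints were derived by simple linear interpolation of the resulting dose-response curve. GI50 is the concentration that inhibits growth by half. The concentration for full growth arrest is given as TGI.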

Test systems include SF-539 CNS; SK-MEL-2 melanoma; SR leukemia; UACC-257 melanoma; HCT-15 colon; IGROV1 ovarian; MOLT-4 leukemia; OVCAR-3 ovarian; RPMI-8226 leukemia; MCF7 breast.
Common to all, as to assay: DTP human tumour cell line panel, 48 h

`N=C(c1ccccc1)N(O)C1CCCCC1`: the TGI in the experiment with SF-539 CNS, with SK-MEL-2 melanoma, in the experiment on SR leukemia and in the experiment on UACC-257 melanoma was over 100 µM throughout.
As to `CC(=O)OC1CCn2nnc(COC(=O)NC(C)C)c21` (stereo not given), the TGI with HCT-15 colon, in the experiment with IGROV1 ovarian, in the experiment on MOLT-4 leukemia, with OVCAR-3 ovarian, in the experiment on RPMI-8226 leukemia and in the experiment with SF-539 CNS was over 100 µM throughout. Besides, the TGI in the experiment on SK-MEL-2 melanoma, in the experiment on SR leukemia and with UACC-257 melanoma was over 100 µM in each case.
Take `COc1cc(-c2[nH]ccc2Cl)oc1C1=C2N=C3C=C2C(C(C)C)C1CCCCCCCC3` (stereo not given): the concentration for total growth inhibition (TGI) came out at 1.86 µM with HCT-15 colon; 2.71 µM in the experiment with IGROV1 ovarian; 1.74 µM with MOLT-4 leukemia; 2.05 µM with OVCAR-3 ovarian; 5.34 µM in the experiment on RPMI-8226 leukemia; 2.46 µM in the experiment with SF-539 CNS. For the same compound, the results for the total growth inhibition concentration (TGI) in the experiment with SK-MEL-2 melanoma, in the experiment on SR leukemia and with UACC-257 melanoma were 1.39 µM, 0.739 µM and 3.18 µM, respectively.
Consider `Cc1c(C(=O)/C=C/c2ccc(Cl)cc2)[n+](=O)c2ccccc2n1[O-]`, for which the TGI in the experiment with HCT-15 colon worked out at 24.1 µM; with IGROV1 ovarian it was 39.4 µM; in the experiment with MOLT-4 leukemia, 45.6 µM; with OVCAR-3 ovarian, 27.4 µM; in the experiment on RPMI-8226 leukemia, 42.4 µM; in the experiment on SF-539 CNS it was 25.7 µM. Moreover, the TGI was found to be 73.1 µM with SR leukemia and 30.4 µM in the experiment on UACC-257 melanoma.
On to `N=C(N)SCCc1cn2ccccc2n1`, for which the total growth inhibition concentration (TGI) in the experiment with HCT-15 colon, with MOLT-4 leukemia, in the experiment on OVCAR-3 ovarian, in the experiment on RPMI-8226 leukemia, with SF-539 CNS and with SK-MEL-2 melanoma was over 100 µM in each case. For the same compound, the concentration for total growth inhibition (TGI) in the experiment on SR leukemia and in the experiment with UACC-257 melanoma was over 100 µM in each case.
Turning to `CCc1c2c(nc3cc4c(cc13)OCO4)-c1cc3c(c(=O)n1C2)COC(=O)[C@@]3(CC)OC(=O)CN`, the concentration for 50% growth inhibition (GI50) is 0.0236 µM in the experiment with HCT-15 colon; under 0.01 µM with MCF7 breast; under 0.01 µM in the experiment with MOLT-4 leukemia; under 0.01 µM with OVCAR-3 ovarian; under 0.01 µM in the experiment with RPMI-8226 leukemia; under 0.01 µM in the experiment on SF-539 CNS. Moreover, the concentration for 50% growth inhibition (GI50) with SK-MEL-2 melanoma is 0.0954 µM; in the experiment with SR leukemia it was under 0.01 µM; in the experiment with UACC-257 melanoma it was under 0.0154 µM. For the same compound, the concentration for total growth inhibition (TGI) in the experiment on HCT-15 colon was over 100 µM; in the experiment with MCF7 breast it was under 0.0346 µM; in the experiment on MOLT-4 leukemia, under 0.01 µM; in the experiment on OVCAR-3 ovarian, 0.315 µM; in the experiment with RPMI-8226 leukemia, 0.154 µM; with SF-539 CNS, under 0.01 µM. Also, the TGI with SK-MEL-2 melanoma is 0.998 µM; in the experiment with SR leukemia, under 0.0389 µM; in the experiment with UACC-257 melanoma it was 0.286 µM.
`O=C(CCC(=O)Nc1ccc(Cl)cc1)CC(=O)c1ccc(F)cc1`: the TGI in the experiment on HCT-15 colon, with IGROV1 ovarian, with MOLT-4 leukemia, with OVCAR-3 ovarian, in the experiment on RPMI-8226 leukemia and in the experiment with SF-539 CNS was over 100 µM throughout. Further, the TGI in the experiment with SK-MEL-2 melanoma, with SR leukemia and in the experiment on UACC-257 melanoma was over 100 µM throughout.
Regarding `COc1cc(OC)c2c(=O)c(O)c(-c3ccc(OC)c(OC)c3)oc2c1`, the TGI in the experiment on HCT-15 colon was over 100 µM; with IGROV1 ovarian, over 31.6 µM; with MCF7 breast it was over 31.6 µM; with MOLT-4 leukemia it was 9.61 µM; with OVCAR-3 ovarian, over 100 µM; in the experiment with RPMI-8226 leukemia, over 31.6 µM. The TGI was over 100 µM with SF-539 CNS, 19.2 µM in the experiment with SR leukemia and over 100 µM with UACC-257 melanoma.
Take `Cc1ccc(C)c(NC(=O)c2cc(-c3ccc([N+](=O)[O-])cc3)nc(N)n2)c1`: the total growth inhibition concentration (TGI) in the experiment with HCT-15 colon, with IGROV1 ovarian, in the experiment with MOLT-4 leukemia, with OVCAR-3 ovarian, in the experiment with RPMI-8226 leukemia and in the experiment with SF-539 CNS was over 100 µM throughout. Further, the total growth inhibition concentration (TGI) in the experiment with SK-MEL-2 melanoma, in the experiment on SR leukemia and in the experiment on UACC-257 melanoma was over 100 µM each time.
On to `Cc1ccc(NC(=O)/C(CC(=O)c2c[n+](=O)c3ccccc3n2O)=N\NC(=O)C[n+]2ccccc2)cc1`, for which the TGI in the experiment with HCT-15 colon, in the experiment with IGROV1 ovarian, with MOLT-4 leukemia, with OVCAR-3 ovarian, in the experiment with RPMI-8226 leukemia and in the experiment with SF-539 CNS was over 100 µM in each case. The concentration for total growth inhibition (TGI) with SK-MEL-2 melanoma, in the experiment on SR leukemia and in the experiment on UACC-257 melanoma was over 100 µM throughout.
With `C=C1CC(CCCl)(c2ccccc2)OC1=O` (stereo not given), the concentration for total growth inhibition (TGI) with HCT-15 colon is 39.2 µM; with IGROV1 ovarian, over 100 µM; in the experiment with MOLT-4 leukemia it was 49.9 µM; in the experiment on OVCAR-3 ovarian, 71.8 µM; in the experiment on RPMI-8226 leukemia it was 71.5 µM; in the experiment with SF-539 CNS it was over 62 µM. The TGI in the experiment with SK-MEL-2 melanoma is over 100 µM; in the experiment on SR leukemia, 52.6 µM; with UACC-257 melanoma, over 75.1 µM.
As for `CCCCCCCCCCCCCCCC(=O)OCC(O)C1OC(=O)C(O)=C1O` (stereo not given), the TGI was over 100 µM in the experiment on HCT-15 colon; 84.5 µM with IGROV1 ovarian; 4.81 µM in the experiment with MCF7 breast; over 100 µM with MOLT-4 leukemia; over 100 µM with OVCAR-3 ovarian; 53.2 µM in the experiment with SF-539 CNS. The TGI in the experiment with SK-MEL-2 melanoma, with SR leukemia and in the experiment with UACC-257 melanoma was over 100 µM in each case.
As for `O=C(COc1cccc(/C=C2\COc3ccccc3C2=O)c1)Nc1nccs1`, the GI50 with HCT-15 colon was 3.11 µM; in the experiment on MCF7 breast it was 1.24 µM; with OVCAR-3 ovarian, 2.03 µM; in the experiment on RPMI-8226 leukemia it was 1.29 µM; in the experiment with SF-539 CNS, 14.7 µM; with SK-MEL-2 melanoma, 1.88 µM. In addition, the GI50 with SR leukemia was 1.03 µM; with UACC-257 melanoma, 2.06 µM. The concentration for total growth inhibition (TGI) with HCT-15 colon stood at 10.2 µM; in the experiment on MCF7 breast it was 5.69 µM; with OVCAR-3 ovarian, 3.51 µM; in the experiment on RPMI-8226 leukemia, 3.69 µM; in the experiment on SF-539 CNS, 31.2 µM; with SK-MEL-2 melanoma it was 5.05 µM. The figures for the TGI in the experiment with SR leukemia and in the experiment on UACC-257 melanoma were 2.76 µM and 5.28 µM, respectively.
As to `O=Cc1ccc(-c2ccc(-c3ccc(C=O)s3)o2)s1`, the TGI in the experiment with HCT-15 colon was over 100 µM; with IGROV1 ovarian, 35.8 µM; in the experiment with MOLT-4 leukemia it was over 100 µM; in the experiment on OVCAR-3 ovarian it was 5.89 µM; in the experiment with RPMI-8226 leukemia, over 100 µM; with SF-539 CNS, over 100 µM. Further, the results for the concentration for total growth inhibition (TGI) in the experiment with SK-MEL-2 melanoma, in the experiment with SR leukemia and with UACC-257 melanoma were over 100 µM, over 100 µM and 16.2 µM, respectively.
